Patent US20200147058A1, “KRAS INHIBITOR FOR USE IN TREATING CANCER” (Friedrich-Alexander-Universitat Erlangen-Numberg, priority 2016, published 2020)

Tests used:
Type in all cases: cell-based, human
[1] = test system: Mel Im cells; assay: FACS analysis of apoptosis (Annexin / propidium iodide)
From the text: (§1) FIGS. 4A through 4H depict that small Molecule KRAS Inhibition Reduces Proliferation and Induces Apoptosis in Melanoma. FIGS. 4A and 4B show proliferation (slope of cell index) of Mel Juso (FIG. 4A) and Mel Im (FIG. 4B) cells treated with DMSO and different concentrations of the KRAS small molecule inhibitor Deltarasin (DR). The cell index as dimensionless parameter for cell proliferative ability was used to determine the half maximal inhibitory concentration (IC50, small graphs) of DR. […] FIG. 4D illustrates exemplary images of different melanoma cell lines (Mel Im, Mel Juso and Mel Ei) treated with 5 μM DR or 5 μM DMSO, respectively, for 24 hours. FIGS. 4E and 4F show images of fibroblast cell lines derived from two different donors (F1, F2) and melanocytes (NHEM) treated DR (20 μM, 48 hours) or DMSO (FIG. 4E), and lactate dehydrogenase (LDH) quantification (FIG. 4F) in cell supernatants (optic density, OD) of NHEM after treatment with low dose DMSO, DR (5 μM), and DR (10 μM), respectively.
(§2) FIGS. 5A through 5D show time-dependent measurement of colony diameters (exemplary data in top panels) in three-dimensional, anchorage-independent “colony-forming” assays (FIGS. 5A and 5B: Mel Im, FIGS. 5C and 5D: Mel Juso). Exemplary Images (middle) and corresponding quantification of colony diameters (bottom panels, summarized data of n=3 experiments at day 19 after seeding) are also depicted. Treatments were performed in four different groups (10 μM DMSO, 5 μM Deltarasin=DR, M PLX-4032=PLX (vemurafenib), or combination of 10 μM PLX+[…]). Effects on i) colony formation (FIGS. 5A and 5C, treatment at day 1) and ii) proliferation of pre-formed colonies (FIGS. 5B and 5D, treatment at day 7 and 13) were analyzed. […] FIG. 5F show images of PLX-primary resistant Mel Juso cells treated with DMSO, DR (5 μM), high dose PLX (20 μM) and a combination of 5 μM DR+10 μM PLX for 24 hours. […] Cells were treated for 5 hours with DMSO, 5 μM Deltarasin (DR), 10 μM PLX, or a combination of 10 μM PLX and 5 μM DR. According to exemplary images for Annexin and propidium iodide (PI) staining are depicted for Mel Im. (FIG. 5H) Mel Im and Mel Juso were transfected with control si-RNA (si-CTR) or with si-KRAS (si-KR). Two subgroups (blue and red) were additionally treated with 10 μM PLX (Vemurafenib) for 24 hours, with subsequent flow cytometric quantification of tumor cell apoptosis according to FIG. 5G. Exemplary images for Annexin and propidium iodide (PI) staining are depicted for Mel Im.

[2] = test system: Mel Juso cells; assay: as above
From the text: as §1, §2

[3] = test system: Htz19 melanoma cells; assay: FACS analysis of apoptosis; details: PLX 24 hours, alone or combined with RNAi-mediated KRAS knockdown
[4] = test system: Mel Im cells; assay: long-term treatment, emergence of surviving tumor cells and drug resistance; details: 21 days, PLX increasing doses up to 20 μM, or 10 μM PLX + 5 μM DR
From the text: as §1
FIGS. 6A through 6H depict that KRASi Prevents Emergence of Resistance and KRAS Expression is Regulated Dynamically in Acquired Resistance to BRAFi. […] Asterisks indicate significant differences (p<0.05) as compared to according control (0 μM PLX). […] Densitometric values (DM) are also shown, representing relative quantifications. […]

[5] = test system: Mel Juso cells; assay: three-dimensional, anchorage-independent colony-forming assay; details: Mel Juso (BRAFi primary resistant); DR 5 μM, PLX 10 μM, alone or combined
From the text: FIGS. 5A through 5D show time-dependent measurement of colony diameters (exemplary data in top panels) in three-dimensional, anchorage-independent “colony-forming” assays (FIGS. 5A and 5B: Mel Im, FIGS. 5C and 5D: Mel Juso). Exemplary Images (middle) and corresponding quantification of colony diameters (bottom panels, summarized data of n=3 experiments at day 19 after seeding) are also depicted. […] Effects on i) colony formation (FIGS. 5A and 5C, treatment at day 1) and ii) proliferation of pre-formed colonies (FIGS. 5B and 5D, treatment at day 7 and 13) were analyzed. […] Cells were treated for 5 hours with DMSO, 5 μM Deltarasin (DR), 10 μM PLX, or a combination of 10 μM PLX and 5 μM DR. […] (FIG. 5H) Mel Im and Mel Juso were transfected with control si-RNA (si-CTR) or with si-KRAS (si-KR). Two subgroups (blue and red) were additionally treated with 10 μM PLX (Vemurafenib) for 24 hours, with subsequent flow cytometric quantification of tumor cell apoptosis according to FIG. 5G.

[6] = test system: Mel Juso cells; assay: ERK-activation in BRAFi primary resistant cells; details: PLX
[7] = test system: SkMel28-wt; assay: cell proliferation (slope of cell index); details: 10 μM PLX vs DMSO
Description: (§3) FIGS. 6A through 6H depict that KRASi Prevents Emergence of Resistance and KRAS Expression is Regulated Dynamically in Acquired Resistance to BRAFi. […] Asterisks indicate significant differences (p<0.05) as compared to according control (0 μM PLX). FIGS. 6E and 6F are exemplary Western blot images (FIG. 6E) depicting immunostaining of AKT, pAKT, ERK, pERK, and KRAS. Densitometric values (DM) are also shown, representing relative quantifications. Resistant cell lines 451Lu-R and SkMel28-R were treated with 0, 5, or 10 μM PLX for 8 hours, and according summarized quantification of KRAS protein expression (n=3, FIG. 6F).

[8] = test system: 451Lu-wt; assay: cell proliferation (slope of cell index); details: 10 μM PLX vs DMSO
[9] = test system: resistant cell clones (SkMel28-R, 451Lu-R); assay: real-time cell proliferation of BRAFi-resistant melanoma cells; details: both resistant cell clones; 10 μM PLX vs DMSO
Description: as §3
FIGS. 7A through 7I present KRAS Inhibition Re-sensitizes BRAF Inhibitor Resistant Cells for Inhibition of Proliferation and Induction of Apoptosis. […] show real-time cell proliferation (exemplary proliferation curve depicted in FIG. 6A, summarized slopes of proliferation curves depicted in FIG. 6B) of PLX-resistant cells treated with si-KRAS (KR) or control si-RNA (CTR), respectively, in combination with 5 or 10 μM PLX. FIGS. 7C and 7D show real-time cell proliferation (exemplary proliferation curve depicted in […], summarized slopes of proliferation curves depicted in FIG. 7D) of PLX-resistant cells treated with Deltarasin (DR) or DMSO, respectively, in combination with 5 or 10 μM PLX, according to FIGS. 7A and 7B. […]

[10] = test system: KRAS mRNA in SkMel28-R and 451Lu-R cells; assay: qRT-PCR of KRAS mRNA expression after PLX treatment; details: resistant and some non-resistant melanoma cell clones; 24-hour and 48-hour PLX treatment
Description: as §3

[11] = test system: resistant cell lines 451Lu-R and SkMel28-R; assay: Western blot of AKT, pAKT, ERK, pERK and KRAS
Description: as §3
After 48 hours of transfection with either control si-RNA (CTR) or si-KRAS (KR), cells were treated with different concentrations of PLX (0-10 μM). Data are represented as mean±SD in FIGS. 6A-6G and as mean±SEM in FIG. 6H. Ns: non-significant. *: p<0.05.

[12] = 10 μM PLX 24 hours, alone (si-CTR) or combined with RNAi-mediated KRAS knockdown
[13] = 5 hours, 5 μM DR, 10 μM PLX or combination

Which results are given for CCCS(=O)(=O)Nc1ccc(F)c(C(=O)c2c[nH]c3ncc(-c4ccc(Cl)cc4)cc23)c1F [PLX]?
apoptosis (FACS) [1, 12]: slightly enhanced apoptosis; apoptosis (FACS), short treatment [1, 13]: insufficient to induce apoptosis; apoptosis (FACS) [2, 12]: did not cause apoptosis; apoptosis (FACS), short treatment [2, 13]: insufficient to induce apoptosis; apoptosis (FACS) [3]: slightly enhanced apoptosis; emergence of surviving tumor cells (acquired resistance) [4]: survival of a moderate proportion of tumor cells; three-dimensional colony formation and colony proliferation [5]: enhanced; ERK-activation [6]: enhanced; cell proliferation [7]: inhibited proliferation; cell proliferation [8]: inhibited proliferation; cell proliferation [9]: enhanced; KRAS mRNA expression (qRT-PCR) [10]: dose-dependent slight dynamic alteration; ERK activation (pERK) ([11]; PLX 0, 5 or 10 μM): increased ERK activation; activation of AKT (pAKT/AKT) ([11]; PLX doses): dose-dependently increased; KRAS protein expression (Western blot) ([11]; eight hours, 0, 5 or 10 μM PLX): dose-dependently enhanced
